Drawing on ChEMBL document CHEMBL3045159, “Computational evaluation and experimental in vitro antibacterial, antifungal and antiviral activity of bis-Schiff bases of isatin and its derivatives” (Med Chem Res, 2013), this text covers MIC and MCC for four compounds.

Converted amounts (≈) assume the structure as drawn. Bounds are passed on as bounds.

In data set [1] the test system is Escherichia coli. Put plainly: Antibacterial activity against Escherichia coli CIP 54127. Type of data set: functional.
The subject of data set [2] is Vesicular stomatitis virus. In words: Antiviral activity against Vesicular stomatitis virus infected HEL cells. Type of data set: functional.
Data set [3] concerns Saccharomyces cerevisiae. In words: Antifungal activity against Saccharomyces cerevisiae ATCC 28383. Type of data set: functional.
Data set [4] concerns Coxsackievirus B4. In words: Antiviral activity against Human coxsackievirus B4 infected Vero cells. Type of data set: functional. Conditions: Enterovirus B.
The subject of data set [5] is Coxsackievirus B4. Put plainly: Antiviral activity against Human coxsackievirus B4 infected HeLa cells. It counts as functional. Conditions: Enterovirus B.
Data set [6] deals with Mammalian orthoreovirus 1. Put plainly: Antiviral activity against Mammalian orthoreovirus 1 infected Vero cells. Type of data set: functional.
For data set [7], the system named is Sindbis virus. Put plainly: Antiviral activity against Sindbis virus infected Vero cells. It counts as functional.
The test system of data set [8] is Vaccinia virus. Put plainly: Antiviral activity against Vaccinia virus infected HEL cells. It counts as functional. The settings on record: Orthopoxvirus vaccinia.
In data set [9] the test system is Human alphaherpesvirus 1. In words: Antiviral activity against Human herpesvirus 1 strain KOS infected in HEL cells. It counts as functional. Conditions: Human alphaherpesvirus 1, KOS.
Data set [10] relates to Vesicular stomatitis virus. Put plainly: Antiviral activity against Vesicular stomatitis virus infected HeLa. It counts as functional.
The test system of data set [11] is Punta Toro virus. Put plainly: Antiviral activity against Punta Toro virus infected Vero cells. Type of data set: functional.
For data set [12], the system named is Human alphaherpesvirus 1. Put plainly: Antiviral activity against thymidine kinase-deficient, acylcovir-resistant Human herpesvirus 1 strain KOS infected in HEL cells. The settings on record: Human alphaherpesvirus 1, KOS. It counts as functional.
The test system of data set [13] is Candida albicans. Put plainly: Antifungal activity against Candida albicans CIP 1180-79. It counts as functional.
A short description of data set [14]: Cytotoxicity against Homo sapiens (human) HeLa cells. It counts as cell-based.
The subject of data set [15] is Staphylococcus aureus. Put plainly: Antibacterial activity against Staphylococcus aureus CIP 4.83. It counts as functional.
The test system of data set [16] is Human respirovirus 3. In words: Antiviral activity against Human parainfluenza virus 3 infected Vero cells. Type of data set: functional.
In data set [17] the test system is Respiratory syncytial virus. In words: Antiviral activity against Respiratory syncytial virus infected HeLa cells. Conditions: human respiratory syncytial virus. Type of data set: functional.
Data set [18] in a line: Cytotoxicity against Chlorocebus aethiops (African green monkey) Vero cells. Type of data set: cell-based. The settings on record: chlorocebus sabaeus.
Data set [19] is described as follows: Cytotoxicity against Homo sapiens (human) HEL cells. Type of data set: cell-based.
Data set [20] relates to Human alphaherpesvirus 2. Put plainly: Antiviral activity against Human herpesvirus 2 strain G infected HEL cells. It counts as functional. Conditions: Human alphaherpesvirus 2, strain G.

As for `O=C1Nc2ccccc2/C1=N\c1ccc(Oc2cccc(/N=C3/C(=O)Nc4ccccc43)c2)cc1`, the MIC was under 50 mg/L in [1]; over 80 mg/L in data set [2]; under 50 mg/L in data set [3]; over 80 mg/L in data set [4]; over 16 mg/L in [5]; over 80 mg/L in data set [6]. For the same compound, the MIC in data set [7] was over 80 mg/L; in data set [8], over 80 mg/L; in data set [9] it was over 80 mg/L; in data set [10], over 16 mg/L; in data set [11], over 80 mg/L; in data set [12], over 80 mg/L. In addition, the MIC in [13] is under 50 mg/L; in data set [15], under 50 mg/L; in data set [16], over 80 mg/L; in [17], over 16 mg/L; in data set [20], over 80 mg/L. Also, the MCC in data set [14] is at least 16 µg/mL; in data set [18], 400 µg/mL; in data set [19], 400 µg/mL.

`O=C1Nc2ccc(F)cc2/C1=N/c1ccc(Cc2ccc(/N=C3\C(=O)Nc4ccc(F)cc43)cc2)cc1`: the MIC in data set [1] was under 50 mg/L; in data set [2], over 3.2 mg/L; in data set [3], under 50 mg/L; in [4], over 16 mg/L; in [5] it was over 16 mg/L; in data set [6], over 16 mg/L. For the same compound, the MIC was over 16 mg/L in data set [7]; over 3.2 mg/L in data set [8]; over 3.2 mg/L in [9]; over 16 mg/L in data set [10]; over 16 mg/L in data set [11]; over 3.2 mg/L in [12]. Moreover, the MIC in data set [13] was under 50 mg/L; in data set [15], under 50 mg/L; in data set [16] it was over 16 mg/L; in [17], over 16 mg/L; in data set [20], over 3.2 mg/L. The MCC was 80 µg/mL in data set [14], at least 16 µg/mL in data set [18] and 16 µg/mL in [19].

As for `O=C1Nc2ccccc2/C1=N\c1ccc(Cc2cccc(/N=C3/C(=O)Nc4ccccc43)c2)cc1`, the MIC was under 50 mg/L in data set [1]; over 16 mg/L in data set [2]; under 50 mg/L in [3]; over 16 mg/L in data set [4]; over 16 mg/L in data set [5]; over 16 mg/L in data set [6]. The MIC was over 16 mg/L in data set [7]; over 16 mg/L in data set [8]; over 16 mg/L in data set [9]; 3.2 mg/L (≈ 7.01 µM) in data set [10]; over 16 mg/L in data set [11]; over 16 mg/L in [12]. Besides, the MIC in data set [13] is under 50 mg/L; in data set [15] it was under 50 mg/L; in data set [16], over 16 mg/L; in [17] it was over 16 mg/L; in [20], over 16 mg/L. For the same compound, the MCC was at least 16 µg/mL in [14], 80 µg/mL in [18] and 80 µg/mL in data set [19].

Consider `O=C1Nc2ccc(F)cc2/C1=N/c1ccc(Oc2ccc(/N=C3\C(=O)Nc4ccc(F)cc43)cc2)cc1`, for which the MIC in data set [1] is under 50 mg/L; in data set [2] it was over 1.6 mg/L; in data set [3], under 50 mg/L; in data set [4], over 8 mg/L; in data set [5], over 16 mg/L; in data set [6], over 8 mg/L. The MIC in data set [7] was over 8 mg/L; in [8] it was over 1.6 mg/L; in data set [9] it was over 1.6 mg/L; in data set [10] it was over 16 mg/L; in data set [11] it was over 8 mg/L; in data set [12], over 1.6 mg/L. The MIC in [13] is under 50 mg/L; in [15], under 50 mg/L; in [16], over 8 mg/L; in [17], over 16 mg/L; in data set [20] it was over 1.6 mg/L. The figures for the MCC in [14], in data set [18] and in data set [19] were at least 16 µg/mL, 40 µg/mL and 8 µg/mL, respectively.
